The record followed here is patent US10689414B2 (Agios Pharmaceuticals, Inc., priority 2013, dated 2020).

The subject of this test is U87MG cells. In words: Cellular assay, inhibition of 2-HG production in U87MG cells. It is filed as cell-based. A digest of the protocol:
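HT1080 or U87MG cells (U87MG kept with 500 ug/mL G418) seeded at 5000 cells/well and treated with compound at 0.2% final DMSO. Incubated 48 h at 37 °C. 2-HG inhibition determined by LC-MS. Viability read by CellTiter-Glo luminescence at 72 h post-dose.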

As usually defined, the IC50 is the midpoint of a concentration-inhibition curve. For `N#Cc1ccnc(N2C(=O)[C@H](O)C[C@H]2C(=O)N(c2cc(F)cc(F)c2)[C@H](C(=O)NC2CCC(F)(F)CC2)c2ccccc2Cl)n1` [Compound 127, (2S,4R)—N—((S)-1-(2-Chlorophenyl)-2-(4,4-difluorocyclohexylamino)-2-oxoethyl)-1-(4-cyanopyrimidin-2-yl)-N-(3,5-difluorophenyl)-4-hydroxy-5-oxopyrrolidine-2-carboxamide], where the note is “Homo sapiens, U-87 MG, 48 h”, the IC50 is less than 100 nM.
Turning to `N#Cc1cccc(N(C(=O)[C@@H]2CCC(=O)N2c2cc(C#N)ccn2)[C@H](C(=O)NC2CC(F)(F)C2)c2ccccc2Cl)c1` [Compound 128, (S)—N—((S)-1-(2-Chlorophenyl)-2-((3,3-difluorocyclobutyl)amino)-2-oxoethyl)-N-(3-cyano-phenyl)-1-(4-cyanopyridin-2-yl)-5-oxopyrrolidine-2-carboxamide], for the setting “Homo sapiens, U-87 MG, 48 h”, the IC50 was less than 100 nM.
Still for that read-out and setting: the value for `COc1cccc(N(C(=O)[C@@H]2CCC(=O)N2c2cc(C#N)ccn2)[C@H](C(=O)NC2CC(F)(F)C2)c2ccccc2Cl)c1` [Compound 129, (S)—N—((S)-1-(2C)-2-((3,3-difluorocyclobutyl)amino)-2-oxoethyl)-1-(4-cyanopyridin-2-yl)-N-(3-methoxyphenyl)-5-oxopyrrolidine-2-carboxamide] was less than 100 nM; that for `N#Cc1ccnc(N2C(=O)CC[C@H]2C(=O)N(c2cccc(OCCO)c2)[C@H](C(=O)NC2CC(F)(F)C2)c2ccccc2Cl)c1` [Compound 130, (S)—N—((S)-1-(2-Chlorophenyl)-2-((3,3-difluorocyclobutyl)amino)-2-oxoethyl)-1-(4-cyanopyridin-2-yl)-N-(3-(2-hydroxyethoxy)phenyl)-5-oxopyrrolidine-2-carboxamide] was less than 100 nM; that for `N#Cc1ccnc(N2C(=O)CC[C@H]2C(=O)N(c2cccc(CO)c2)[C@H](C(=O)NC2CC(F)(F)C2)c2ccccc2Cl)c1` [Compound 131, (S)—N—((S)-1-(2-Chlorophenyl)-2-(3,3-difluorocyclobutylamino)-2-oxoethyl)-1-(4-cyanopyridin-2-yl)-N-(3-(hydroxymethyl)phenyl)-5-oxopyrrolidine-2-carboxamide] was less than 100 nM.
The same measure, in the same setting: next, `N#Cc1ccnc(N2C(=O)OC[C@H]2C(=O)N(c2cncc(F)c2)[C@H](C(=O)NC2CCC(F)(F)CC2)c2ccccc2Cl)c1` [Compound 132, (S)—N—((S)-1-(2-Chlorophenyl)-2-((4,4-difluorocyclohexyl)amino)-2-oxoethyl)-3-(4-cyanopyri-din-2-yl)-N-(5-fluoropyridin-3-yl)-2-oxooxazolidine-4-carboxamide]: less than 100 nM.
Compound `N#Cc1ccnc(N2C(=O)OCC[C@H]2C(=O)N(c2cc(F)cc(F)c2)[C@H](C(=O)NC2CC(F)(F)C2)c2ccccc2Cl)c1` [Compound 133, (S)—N—((S)-1-(2-Chlorophenyl)-2-((3,3-difluorocyclobutyl)amino)-2-oxoethyl)-3-(4-cyanopyridin-2-yl)-N-(3,5-difluorophenyl)-2-oxo-1,3-oxazinane-4-carboxamide] yielded an IC50 (Homo sapiens, U-87 MG, 48 h) of less than 100 nM.
Still for that read-out and setting: next, `N#Cc1ccnc(N2C(=O)OC[C@H]2C(=O)N(c2cncc(F)c2)[C@H](C(=O)NC2CC(F)(F)C2)c2ccccc2Cl)c1` [Compound 135, (S)—N—((S)-1-(2-Chlorophenyl)-2-((3,3-difluorocyclobutyl)amino)-2-oxoethyl)-3-(4-cyanopyri-din-2-yl)-N-(5-fluoropyridin-3-yl)-2-oxooxazolidine-4-carboxamide]: less than 100 nM.
As to `N#Cc1ccnc(N2C(=O)OCC[C@H]2C(=O)N(c2cncc(F)c2)[C@H](C(=O)NC2CCC(F)(F)CC2)c2ccccc2Cl)c1` [Compound 137, (S)—N—((S)-1-(2-Chlorophenyl)-2-((4,4-difluorocyclohexyl)amino)-2-oxoethyl)-3-(4-cyano-pyridin-2-yl)-N-(5-fluoropyridin-3-yl)-2-oxo-1,3-oxazinane-4-carboxamide], the IC50 (Homo sapiens, U-87 MG, 48 h) is less than 100 nM.
For the setting “Homo sapiens, U-87 MG, 48 h”, `N#Cc1ccnc(N2C(=O)CC[C@H]2C(=O)N(c2cccc(F)c2)[C@H](C(=O)NC2CC(F)(F)C2)c2ccccc2)c1` [Compound 138, (S)-1-(4-Cyanopyridin-2-yl)-N—((S)-2-((3,3-difluorocyclobutyl)amino)-2-oxo-1-phenylethyl)-N-(3-fluorophenyl)-5-oxopyrrolidine-2-carboxamide] showed a half-maximal inhibitory concentration (IC50) of less than 100 nM.
Take `N#Cc1ccnc(N2C(=O)OCC[C@H]2C(=O)N(c2cc(F)cc(F)c2)[C@H](C(=O)NC2CCC(F)(F)CC2)c2ccccc2Cl)c1` [Compound 139, (S)—N—((S)-1-(2-Chlorophenyl)-2-((4,4-difluorocyclohexyl)amino)-2-oxoethyl)-3-(4-cyanopyridin-2-yl)-N-(3,5-difluorophenyl)-2-oxo-1,3-oxazinane-4-carboxamide]: the half-inhibitory concentration (IC50) (Homo sapiens, U-87 MG, 48 h) was less than 100 nM.
As for `N#Cc1ccnc(N2C(=O)CC[C@H]2C(=O)N(c2cccc(C3(O)CC3)c2)[C@H](C(=O)NC2CC(F)(F)C2)c2ccccc2Cl)c1` [Compound 140, (S)—N—((S)-1-(2-Xhlorophenyl)-2-(3,3-difluorocyclobutylamino)-2-oxoethyl)-1-(4-cyanopyridin-2-yl)-N-(3-(1-hydroxycyclopropyl)phenyl)-5-oxopyrrolidine-2-carboxamide], the IC50 (inhibition of 2-HG production, U87MG cells, 48 hours) is less than 100 nM.
`N#Cc1ccnc(N2C(=O)CC[C@H]2C(=O)N(c2cccc3[nH]cnc23)C(C(=O)NC2CCC(F)(F)CC2)c2ccccc2Cl)c1` (stereo partly drawn) [Compound 141, (2S)—N-(1H-benzo[d]imidazol-7-yl)-N-(1-(2-chlorophenyl)-2-((4,4-difluorocyclohexyl)amino)-2-oxoethyl)-1-(4-cyanopyridin-2-yl)-5-oxopyrrolidine-2-carboxamide] had a half-inhibitory concentration (IC50) (Homo sapiens, U-87 MG, 48 h) of less than 100 nM.
Consider `N#Cc1ccnc(N2C(=O)OCC[C@H]2C(=O)N(c2cncc(F)c2)[C@H](C(=O)NC2CC(F)(F)C2)c2ccccc2Cl)c1` [Compound 143, (S)—N—((S)-1-(2-Chlorophenyl)-2-((3,3-difluorocyclobutyl)amino)-2-oxoethyl)-3-(4-cyanopyridin-2-yl)-N-(5-fluoropyridin-3-yl)-2-oxo-1,3-oxazinane-4-carboxamide], for which the concentration for half-maximal inhibition (IC50) (Homo sapiens, U-87 MG, 48 h) was less than 100 nM.
As for `N#Cc1ccnc(N2C(=O)OCC[C@H]2C(=O)N(c2cc(F)cc(F)c2)[C@H](C(=O)NC2CCC(F)(F)CC2)c2ccccc2Cl)n1` [Compound 144, (S)—N—((S)-1-(2-Chlorophenyl)-2-((4,4-difluorocyclohexyl)amino)-2-oxoethyl)-3-(4-cyanopyrimidin-2-yl)-N-(3,5-difluorophenyl)-2-oxo-1,3-oxazinane-4-carboxamide], the concentration for half-maximal inhibition (IC50) (Homo sapiens, U-87 MG, 48 h) is less than 100 nM.
Where the note is “Homo sapiens, U-87 MG, 48 h”, `CC(C)(O)c1cc(F)cc(N(C(=O)[C@@H]2CCOC(=O)N2c2cc(C#N)ccn2)[C@H](C(=O)NC2CC(F)(F)C2)c2ccccc2Cl)c1` [Compound 146, (S)—N—((S)-1-(2-Chlorophenyl)-2-(3,3-difluorocyclobutylamino)-2-oxoethyl)-3-(4-cyanopyridin-2-yl)-N-(3-fluoro-5-(2-hydroxypropan-2-yl)phenyl)-2-oxo-1,3-oxazinane-4-carboxamide] yielded a half-inhibitory concentration (IC50) of less than 100 nM.
Still for that read-out and setting: the value for `N#Cc1ccnc(N2C(=O)CC[C@H]2C(=O)N(c2cncc(F)c2)[C@H](C(=O)NC2CC(F)(F)C2)c2ccccc2)c1` [Compound 147, (S)-1-(4-Cyanopyridin-2-yl)-N—((S)-2-((3,3-difluorocyclobutyl)amino)-2-oxo-1-phenylethyl)-N-(5-fluoropyridin-3-yl)-5-oxopyrrolidine-2-carboxamide] was less than 100 nM; that for `N#Cc1ccnc(N2C(=O)CC[C@H]2C(=O)N(c2cncc(F)c2)[C@H](C(=O)NC2CC(F)(F)C2)c2ccccc2F)c1` [Compound 148, (S)-1-(4-Cyanopyridin-2-yl)-N—((S)-2-((3,3-difluorocyclobutyl)amino)-1-(2-fluorophenyl)-2-oxoethyl)-N-(5-fluoropyridin-3-yl)-5-oxopyrrolidine-2-carboxamide] was less than 100 nM; that for `N#Cc1ccnc(N2C(=O)CC[C@H]2C(=O)N(c2cccc(F)c2)[C@H](C(=O)NC2CC(F)(F)C2)c2ccccc2F)c1` [Compound 149, (S)-1-(4-Cyanopyridin-2-yl)-N—((S)-2-((3,3-difluorocyclobutyl)amino)-1-(2-fluorophenyl)-2-oxoethyl)-N-(3-fluorophenyl)-5-oxopyrrolidine-2-carboxamide] was less than 100 nM.
Take `N#Cc1ccnc(N2C(=O)[C@H](F)C[C@H]2C(=O)N(c2cccc(F)c2)[C@H](C(=O)NC2CCC(F)(F)CC2)c2ccccc2Cl)c1` [Compound 151, (2S,4R)—N—((S)-1-(2-Chlorophenyl)-2-((4,4-difluorocyclohexyl)amino)-2-oxoethyl)-1-(4-cyanopyridin-2-yl)-4-fluoro-N-(3-fluorophenyl)-5-oxopyrrolidine-2-carboxamide]: the IC50 (Homo sapiens, U-87 MG, 48 h) was less than 100 nM.
On the same count and under the same terms, the value for `N#Cc1ccnc(N2C(=O)CC[C@H]2C(=O)N(c2cccc3[nH]ncc23)C(C(=O)NC2CC(F)(F)C2)c2ccccc2Cl)c1` (stereo partly drawn) [Compound 152, (2S)—N-(1-(2-Chlorophenyl)-2-((3,3-difluorocyclobutyl)amino)-2-oxoethyl)-1-(4-cyanopyridin-2-yl)-N-(1H-indazol-4-yl)-5-oxopyrrolidine-2-carboxamide] was less than 100 nM; that for `N#Cc1cc(C#N)cc(N(C(=O)[C@@H]2CCC(=O)N2c2cc(C#N)ccn2)[C@H](C(=O)NC2CC(F)(F)C2)c2ccccc2Cl)c1` [Compound 153, (S)—N—((S)-1-(2-Chlorophenyl)-2-((3,3-difluorocyclobutyl)amino)-2-oxoethyl)-1-(4-cyanopyridin-2-yl)-N-(3,5-dicyanophenyl)-5-oxopyrrolidine-2-carboxamide] was less than 100 nM.
Still for that read-out and setting: next, `N#Cc1ccnc(N2C(=O)OCC[C@H]2C(=O)N(c2cc(F)cc(F)c2)[C@H](C(=O)NC2CC(F)(F)C2)c2ccccc2Cl)n1` [Compound 154, (S)—N—((S)-1-(2-Chlorophenyl)-2-((3,3-difluorocyclobutyl)amino)-2-oxoethyl)-3-(4-cyanopyrimidin-2-yl)-N-(3,5-difluorophenyl)-2-oxo-1,3-oxazinane-4-carboxamide]: less than 100 nM.
